Experimental data: ChEMBL document CHEMBL5465560, “Selectivity Literature for EUbOPEN Chemogenomic Library” (2024)

What was measured:
[1] = molecular target: T1, Epidermal growth factor receptor (Homo sapiens, UniProt P00533); test: Selectivity interaction (Kinase panel (literature)) EUB0001199aCl EGFR; settings: at 1 µM
[2] = tested on: Tyrosine-protein kinase ABL1 (Homo sapiens), P00519 [E255K]; test: Selectivity interaction (KinomeScan (DiscoverX)) EUB0000229b ABL1; settings: at 1 µM
[3] = molecular target: Protein kinase C delta type (Homo sapiens) (UniProt Q05655); test: Selectivity interaction (KinomeScan (DiscoverX)) EUB0001079a PRKCD; settings: at 1 µM
[4] = molecular target: Serine/threonine-protein kinase Nek7 (Homo sapiens) (UniProt Q8TDX7); test: Selectivity interaction (Kinase panel (DSF assay)) EUB0001558a NEK7
Sequence of Serine/threonine-protein kinase Nek7 (Homo sapiens) (Q8TDX7 whole entry, looked up): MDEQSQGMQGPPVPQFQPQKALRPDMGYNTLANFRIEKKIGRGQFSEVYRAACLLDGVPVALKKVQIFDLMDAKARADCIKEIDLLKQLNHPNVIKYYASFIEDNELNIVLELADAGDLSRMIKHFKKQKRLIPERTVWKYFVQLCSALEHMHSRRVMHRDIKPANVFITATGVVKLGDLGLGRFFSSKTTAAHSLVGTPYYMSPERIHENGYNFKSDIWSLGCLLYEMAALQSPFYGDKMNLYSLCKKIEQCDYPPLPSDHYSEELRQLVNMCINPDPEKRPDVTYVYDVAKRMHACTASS

[5] = molecular target: Serine/threonine-protein kinase PRP4 homolog (Homo sapiens) (UniProt Q13523); test: Selectivity interaction (ActivX KiNativ screen (kinase selectivity in THP-1 cell lysates)) EUB0000639a PRPF4; format: subcellular; settings: lysate, at 0.04 µM
[6] = molecular target: Homeodomain-interacting protein kinase 3 (Homo sapiens, UniProt Q9H422); test: Selectivity interaction (KinomeScan (DiscoverX)) EUB0000092b HIPK3; settings: at 10 µM
[7] = molecular target: T2, Peripheral plasma membrane protein CASK (Homo sapiens) (UniProt O14936); test: Selectivity interaction (KinomeScan (DiscoverX)) EUB0000618a CASK; settings: at 10 µM
T2 sequence (whole entry): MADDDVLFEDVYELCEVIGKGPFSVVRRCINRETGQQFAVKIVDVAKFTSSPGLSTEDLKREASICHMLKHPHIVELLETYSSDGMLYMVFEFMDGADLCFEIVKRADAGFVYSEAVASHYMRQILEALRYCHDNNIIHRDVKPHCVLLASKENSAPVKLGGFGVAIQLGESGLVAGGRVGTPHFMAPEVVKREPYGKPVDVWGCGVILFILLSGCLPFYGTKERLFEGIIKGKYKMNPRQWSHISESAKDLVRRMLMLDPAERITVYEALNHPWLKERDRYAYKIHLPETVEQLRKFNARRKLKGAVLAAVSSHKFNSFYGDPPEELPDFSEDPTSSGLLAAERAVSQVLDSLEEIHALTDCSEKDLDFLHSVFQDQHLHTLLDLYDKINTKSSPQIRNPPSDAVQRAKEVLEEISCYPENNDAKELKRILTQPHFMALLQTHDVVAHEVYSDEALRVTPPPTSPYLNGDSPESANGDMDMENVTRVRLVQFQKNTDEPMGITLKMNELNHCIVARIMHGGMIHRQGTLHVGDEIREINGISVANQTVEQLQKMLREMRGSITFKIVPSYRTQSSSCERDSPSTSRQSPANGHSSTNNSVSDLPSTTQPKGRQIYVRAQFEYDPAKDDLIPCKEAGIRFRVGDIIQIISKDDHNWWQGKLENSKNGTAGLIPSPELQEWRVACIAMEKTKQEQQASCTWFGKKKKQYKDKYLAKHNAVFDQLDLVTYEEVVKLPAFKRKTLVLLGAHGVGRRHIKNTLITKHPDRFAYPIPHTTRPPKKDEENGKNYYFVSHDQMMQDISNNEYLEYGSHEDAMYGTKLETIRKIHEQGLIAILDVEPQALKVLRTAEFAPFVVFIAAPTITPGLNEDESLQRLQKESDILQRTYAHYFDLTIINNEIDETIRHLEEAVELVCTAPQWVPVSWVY

[8] = molecular target: T3, Phosphatidylinositol 5-phosphate 4-kinase type-2 gamma (Homo sapiens) (UniProt Q8TBX8); test: Selectivity interaction (KinomeScan (DiscoverX)) EUB0001619a PIP4K2C; settings: at 1 µM
T3 sequence (whole entry): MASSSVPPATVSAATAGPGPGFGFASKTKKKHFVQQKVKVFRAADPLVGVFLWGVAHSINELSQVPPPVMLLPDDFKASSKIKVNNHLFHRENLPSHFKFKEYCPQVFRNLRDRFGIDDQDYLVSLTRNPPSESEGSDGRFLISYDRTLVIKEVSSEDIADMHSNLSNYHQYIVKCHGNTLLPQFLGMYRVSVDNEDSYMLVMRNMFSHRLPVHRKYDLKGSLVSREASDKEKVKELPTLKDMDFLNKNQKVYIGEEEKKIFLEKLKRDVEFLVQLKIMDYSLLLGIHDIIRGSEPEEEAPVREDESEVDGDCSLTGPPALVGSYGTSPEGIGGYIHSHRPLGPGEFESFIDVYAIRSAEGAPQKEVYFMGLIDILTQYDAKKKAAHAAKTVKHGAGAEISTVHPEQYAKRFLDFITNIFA

[9] = molecular target: Serine/threonine-protein kinase 25 (Homo sapiens) (UniProt O00506); test: Selectivity interaction (ActivX KiNativ screen (ex vivo kinase selectivity in human PBMCs)) EUB0001619a STK25; format: cell-based; settings: PBMC, at 1 µM
[10] = tested on: Epidermal growth factor receptor (Homo sapiens), P00533 [L858R,T790M]; test: (§1) Selectivity interaction (Kinase panel (Z-LYTE Assay)) EUB0001632a EGFR; settings: at 10 µM
Sequence of Epidermal growth factor receptor (Homo sapiens), P00533 [L858R,T790M] (P00533 whole entry T790M/L858R, looked up): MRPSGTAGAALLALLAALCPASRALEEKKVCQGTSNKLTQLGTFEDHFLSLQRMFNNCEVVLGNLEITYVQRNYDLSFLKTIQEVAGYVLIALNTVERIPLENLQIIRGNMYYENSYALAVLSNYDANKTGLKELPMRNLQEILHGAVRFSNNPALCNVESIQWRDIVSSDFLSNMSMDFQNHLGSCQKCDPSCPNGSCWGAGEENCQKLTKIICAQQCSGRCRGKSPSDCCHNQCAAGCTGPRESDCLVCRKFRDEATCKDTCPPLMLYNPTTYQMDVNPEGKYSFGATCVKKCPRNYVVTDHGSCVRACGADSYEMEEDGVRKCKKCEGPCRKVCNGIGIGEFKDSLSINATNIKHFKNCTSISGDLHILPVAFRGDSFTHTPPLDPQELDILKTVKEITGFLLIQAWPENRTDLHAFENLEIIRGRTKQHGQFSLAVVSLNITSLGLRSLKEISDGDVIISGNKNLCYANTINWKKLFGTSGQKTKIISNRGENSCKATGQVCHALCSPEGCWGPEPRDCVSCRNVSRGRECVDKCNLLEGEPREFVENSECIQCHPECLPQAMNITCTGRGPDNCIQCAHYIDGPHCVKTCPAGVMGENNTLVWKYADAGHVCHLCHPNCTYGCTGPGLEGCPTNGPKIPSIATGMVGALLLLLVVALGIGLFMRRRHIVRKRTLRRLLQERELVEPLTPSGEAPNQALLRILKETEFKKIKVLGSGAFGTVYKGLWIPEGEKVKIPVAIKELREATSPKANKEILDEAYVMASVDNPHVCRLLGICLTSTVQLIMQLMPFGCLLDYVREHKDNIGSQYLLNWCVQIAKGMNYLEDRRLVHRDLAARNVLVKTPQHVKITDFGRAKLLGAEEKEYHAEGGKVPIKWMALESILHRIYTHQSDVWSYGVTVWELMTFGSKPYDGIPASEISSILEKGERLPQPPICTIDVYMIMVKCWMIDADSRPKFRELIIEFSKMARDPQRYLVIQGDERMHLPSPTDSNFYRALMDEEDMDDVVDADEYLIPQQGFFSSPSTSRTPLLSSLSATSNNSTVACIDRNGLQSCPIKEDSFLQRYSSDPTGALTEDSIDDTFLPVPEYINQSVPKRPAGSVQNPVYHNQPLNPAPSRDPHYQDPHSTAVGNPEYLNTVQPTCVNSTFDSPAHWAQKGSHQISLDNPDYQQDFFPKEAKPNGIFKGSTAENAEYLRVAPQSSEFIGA

[11] = tested on: Epidermal growth factor receptor (Homo sapiens), P00533 [L858R]; test: as §1; settings: at 10 µM
[12] = tested on: Epidermal growth factor receptor (Homo sapiens), P00533 [L861Q]; test: as §1; settings: at 10 µM
[13] = tested on: Epidermal growth factor receptor (Homo sapiens), P00533 [T790M]; test: as §1; settings: at 10 µM
[14] = molecular target: T1, Epidermal growth factor receptor; test: as §1; settings: at 10 µM
[15] = molecular target: Hepatocyte growth factor receptor (Homo sapiens, UniProt P08581); test: Selectivity interaction (Rxn Biology Kinase assay) EUB0001632a MET; settings: at 10 µM
[16] = molecular target: Histone-lysine N-methyltransferase ASH1L (Homo sapiens) (UniProt Q9NR48); test: Selectivity interaction (Methyltransferase screen (radiometric assays, panel of 8 PRMTs, 21 protein lysine methyltransferases, 3 DNA methyltransferases, and one RNA methyltransferase)) EUB0000271b ASH1L
[17] = molecular target: Activin receptor type-2B (Homo sapiens) (UniProt Q13705); test: Selectivity interaction (ProQinase) EUB0000171b ACVR2B
Sequence of Activin receptor type-2B (Homo sapiens) (Q13705 whole entry): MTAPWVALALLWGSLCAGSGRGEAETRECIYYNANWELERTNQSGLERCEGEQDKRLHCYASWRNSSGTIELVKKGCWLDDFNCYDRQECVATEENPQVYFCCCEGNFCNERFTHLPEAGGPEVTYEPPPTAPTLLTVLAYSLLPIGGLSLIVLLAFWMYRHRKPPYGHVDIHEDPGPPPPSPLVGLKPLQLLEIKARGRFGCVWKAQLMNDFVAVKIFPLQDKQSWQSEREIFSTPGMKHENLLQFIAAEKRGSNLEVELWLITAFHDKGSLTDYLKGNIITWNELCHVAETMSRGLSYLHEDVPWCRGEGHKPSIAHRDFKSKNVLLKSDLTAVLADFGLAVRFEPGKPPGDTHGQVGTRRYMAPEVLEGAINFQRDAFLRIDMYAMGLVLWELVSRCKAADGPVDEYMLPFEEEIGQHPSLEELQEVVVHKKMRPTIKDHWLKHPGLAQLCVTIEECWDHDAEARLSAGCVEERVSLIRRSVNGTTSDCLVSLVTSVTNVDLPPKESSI

[18] = molecular target: Protein kinase C beta type (Homo sapiens, UniProt P05771); test: Selectivity interaction (ProQinase) EUB0000171b PRKCB
Sequence of Protein kinase C beta type (P05771 2-671 limits assumed): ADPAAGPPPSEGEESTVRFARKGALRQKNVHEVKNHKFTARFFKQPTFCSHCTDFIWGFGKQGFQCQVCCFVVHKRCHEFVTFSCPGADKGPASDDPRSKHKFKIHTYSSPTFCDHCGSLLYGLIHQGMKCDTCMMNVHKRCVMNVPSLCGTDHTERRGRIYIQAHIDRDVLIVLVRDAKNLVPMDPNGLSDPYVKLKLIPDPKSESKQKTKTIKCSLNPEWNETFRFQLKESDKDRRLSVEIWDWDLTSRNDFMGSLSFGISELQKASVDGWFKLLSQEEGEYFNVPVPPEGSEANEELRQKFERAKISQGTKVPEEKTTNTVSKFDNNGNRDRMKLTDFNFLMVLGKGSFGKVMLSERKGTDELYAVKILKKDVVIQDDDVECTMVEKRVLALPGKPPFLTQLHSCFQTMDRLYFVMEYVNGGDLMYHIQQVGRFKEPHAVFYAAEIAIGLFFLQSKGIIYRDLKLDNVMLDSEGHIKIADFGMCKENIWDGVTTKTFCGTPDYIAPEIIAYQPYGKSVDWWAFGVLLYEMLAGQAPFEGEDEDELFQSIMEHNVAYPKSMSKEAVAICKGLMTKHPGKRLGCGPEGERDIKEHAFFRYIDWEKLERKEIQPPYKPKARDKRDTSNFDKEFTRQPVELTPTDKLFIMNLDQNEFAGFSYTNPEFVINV

T1 sequence (P00533 whole entry): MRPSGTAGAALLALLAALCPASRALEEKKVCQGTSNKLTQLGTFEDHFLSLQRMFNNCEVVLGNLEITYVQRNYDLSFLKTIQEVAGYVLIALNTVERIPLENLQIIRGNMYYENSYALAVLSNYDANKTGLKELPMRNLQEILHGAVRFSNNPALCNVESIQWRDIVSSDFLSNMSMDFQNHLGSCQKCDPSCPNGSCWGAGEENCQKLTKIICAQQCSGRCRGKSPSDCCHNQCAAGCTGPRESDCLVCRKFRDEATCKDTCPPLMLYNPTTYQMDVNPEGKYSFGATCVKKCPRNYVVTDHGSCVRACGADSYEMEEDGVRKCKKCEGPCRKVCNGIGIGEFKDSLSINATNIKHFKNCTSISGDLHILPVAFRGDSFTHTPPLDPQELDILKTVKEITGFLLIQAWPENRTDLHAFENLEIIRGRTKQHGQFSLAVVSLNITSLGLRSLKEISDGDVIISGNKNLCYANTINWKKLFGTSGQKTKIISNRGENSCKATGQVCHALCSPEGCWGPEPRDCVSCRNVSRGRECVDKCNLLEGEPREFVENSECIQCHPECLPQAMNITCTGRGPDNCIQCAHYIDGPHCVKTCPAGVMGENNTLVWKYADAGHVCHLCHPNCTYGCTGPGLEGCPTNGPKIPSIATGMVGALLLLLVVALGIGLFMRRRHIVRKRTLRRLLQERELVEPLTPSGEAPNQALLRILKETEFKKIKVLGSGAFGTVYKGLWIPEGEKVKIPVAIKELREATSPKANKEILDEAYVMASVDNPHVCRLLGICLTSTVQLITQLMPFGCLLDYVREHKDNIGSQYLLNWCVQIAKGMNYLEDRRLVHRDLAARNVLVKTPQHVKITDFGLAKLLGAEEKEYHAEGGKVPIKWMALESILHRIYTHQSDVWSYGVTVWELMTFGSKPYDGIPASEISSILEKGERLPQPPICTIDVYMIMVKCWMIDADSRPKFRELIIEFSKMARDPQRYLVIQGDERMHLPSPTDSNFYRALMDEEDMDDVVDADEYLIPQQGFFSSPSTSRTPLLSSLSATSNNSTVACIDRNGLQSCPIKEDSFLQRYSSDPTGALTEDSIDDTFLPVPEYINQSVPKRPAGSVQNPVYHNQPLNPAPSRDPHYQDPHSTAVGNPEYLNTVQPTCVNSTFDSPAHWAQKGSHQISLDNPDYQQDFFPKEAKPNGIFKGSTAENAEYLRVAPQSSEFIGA
Sequence of Tyrosine-protein kinase ABL1 (Homo sapiens), P00519 [E255K] (P00519 whole entry E255K): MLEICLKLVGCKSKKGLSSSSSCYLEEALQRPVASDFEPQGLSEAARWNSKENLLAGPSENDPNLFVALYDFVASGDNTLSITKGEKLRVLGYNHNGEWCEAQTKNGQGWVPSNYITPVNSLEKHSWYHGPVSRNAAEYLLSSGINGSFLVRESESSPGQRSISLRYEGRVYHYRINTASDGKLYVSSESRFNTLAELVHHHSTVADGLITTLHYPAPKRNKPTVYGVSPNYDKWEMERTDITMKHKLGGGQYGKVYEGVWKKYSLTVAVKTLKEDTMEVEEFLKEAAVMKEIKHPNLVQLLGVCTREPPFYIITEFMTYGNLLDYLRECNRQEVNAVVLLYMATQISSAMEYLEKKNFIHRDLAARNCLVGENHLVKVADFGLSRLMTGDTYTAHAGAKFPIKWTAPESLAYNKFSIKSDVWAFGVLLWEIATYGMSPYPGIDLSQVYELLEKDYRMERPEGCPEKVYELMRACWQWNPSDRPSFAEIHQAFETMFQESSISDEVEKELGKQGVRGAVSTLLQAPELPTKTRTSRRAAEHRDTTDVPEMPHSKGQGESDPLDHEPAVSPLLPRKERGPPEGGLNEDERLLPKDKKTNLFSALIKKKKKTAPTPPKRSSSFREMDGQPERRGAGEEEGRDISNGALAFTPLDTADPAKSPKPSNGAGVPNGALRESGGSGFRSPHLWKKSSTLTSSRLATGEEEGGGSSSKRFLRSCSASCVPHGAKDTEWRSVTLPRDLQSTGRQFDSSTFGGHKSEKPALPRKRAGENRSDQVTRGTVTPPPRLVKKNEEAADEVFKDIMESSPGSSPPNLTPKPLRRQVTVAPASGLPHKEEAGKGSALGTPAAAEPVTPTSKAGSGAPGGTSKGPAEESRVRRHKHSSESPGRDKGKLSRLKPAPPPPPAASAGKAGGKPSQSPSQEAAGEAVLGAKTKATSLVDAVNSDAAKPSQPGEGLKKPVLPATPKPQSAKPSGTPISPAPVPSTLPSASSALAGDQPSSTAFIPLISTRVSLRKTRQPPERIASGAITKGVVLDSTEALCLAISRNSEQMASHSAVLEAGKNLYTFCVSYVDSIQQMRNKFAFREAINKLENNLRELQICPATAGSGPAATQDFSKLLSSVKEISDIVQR

CN1Cc2nccc(-c3cn(C)nc3-c3ccc(F)cc3)c2C1=O
% of inhibition [1]: 8%

COc1cc(N(C)c2ccnc3ccc(C(F)(F)F)cc23)cc(OC)c1OC
% binding [2]: 90%

Nc1cnc(N2CCc3cc(S(=O)(=O)Nc4c(F)cc(Cl)cc4F)cc(N4CCCC4=O)c32)nc1 [TP-020n]
% of control [3]: 86%

CC(C)(O)[C@H](F)CN1Cc2cc(NC(=O)c3cnn4cccnc34)c(N3CCOCC3)cc2C1=O
dTM [4]: -0.2 K

CC[C@@H]1[C@H](F)C(=O)N[C@@H]1COc1nccc2cc(C(N)=O)c(OC)cc12 [ZIMLOVISERTIB]
% of inhibition [5]: 16%

CCC(=O)N1CCN(c2ccc(-n3c(=O)ccc4cnc5ccc(-c6cnc7ccccc7c6)cc5c43)cc2C(F)(F)F)CC1
% of control [6]: 86%

O[C@H]1CC[C@H](Nc2ncc3nc(Nc4c(F)cc(F)cc4F)n([C@H]4CCOC4)c3n2)CC1
% of control [7]: 95%

N#Cc1cccc(-c2c[nH]c3ncnc(N4CCOCC4)c23)c1
% of control [8]: 21%
% of inhibition [9]: 39%

Cn1cc(-n2cnc3c(NCc4nc5cc(Cl)c(Cl)cc5[nH]4)nc(N4CCOCC4)nc32)cn1
% of control [10]: 5.81%
% of control [11]: 3.58%
% of control [12]: 9.07%
% of control [13]: 1.29%
% of control [14]: 3.08%
% of inhibition [15]: -31.5%

Cc1cc(C)cc([C@@H]2c3cc(C)ccc3NC(=O)CN2C(=O)c2ccc(Br)s2)c1
% of activity ([16]; at 1 µM): 97.3%
% of activity ([16]; at 10 µM): 105%

C=CC(=O)Nc1cccc(C(=O)Nc2ccc(Nc3cc(-c4[nH]c(SC)nc4C)ccn3)cc2)c1
% of control ([17]; at 1 µM): 88%
% of control ([17]; at 5 µM): 68%
% of control ([18]; at 1 µM): 111%
% of control ([18]; at 5 µM): 106%
